This is an account of results in patent US20260138992A1, “LUR[…] FORM AND METHOD FOR PREPARING SAME” (priority 2022, published 2026).

The conditions of data set [1]: during its manipulation; cited from earlier work.
Data set [2] can be described thus: Applicant's experimental study of the stability of crystal Form A of CN114940682A. The class given is physicochemical.
Data set [3] is classed as physicochemical. The note with it: for chemical stability (assessment in words) / physical stability (assessment in words): 10 days under long-term and accelerated conditions; for product purity: after 10 days at 25° C./60% RH and 40° C./75% RH; for purity: sealed and stored at −20° C. for 120 days.
The nature of data set [4]: Observation of electrostatic properties of the crystal forms (glass bottle storage, weighing). The class given is physicochemical. The note with it: for electrostatic effect (sticking to scoop and weighing paper): during the weighing; for wall-hanging phenomenon: stored in a glass bottle.
Data set [5] is described as follows: Stability test of crystal form I of lurbinectedin (XRPD and HPLC purity after storage). Format: physicochemical.
The mark [6] stands for this setting: 10 days under long-term (25° C./60% RH) and accelerated (40° C./75% RH) conditions.
Where [7] appears, read: Group 6, sealed and stored at −20° C. for 120 days.
Setting [8] is: Group 2, kept in dark, sealed, 2-8° C. for 12 months.
The mark [9] stands for this setting: Group 3, kept in dark, sealed, −20° C. for 20 months.
Setting [10] is: stored at −20° C. in the dark and sealed, and at 2-8° C. in the dark and sealed.

Molecules are shown by their SMILES. Like-named read-outs stand apart in the source and are kept apart here.

As for `COc1ccc2[nH]c3c(c2c1)CCN[C@]31CS[C@@H]2c3c(OC(C)=O)c(C)c4c(c3[C@H](COC1=O)N1[C@@H]2[C@H]2c3c(cc(C)c(OC)c3O)C[C@@H]([C@@H]1O)N2C)OCO4` [Form A, lurbinectedin], the static electricity entry in data set [1] is “has static electricity”.
In the case of `COc1ccc2[nH]c3c(c2c1)CCN[C@]31CS[C@@H]2c3c(OC(C)=O)c(C)c4c(c3[C@H](COC1=O)N1[C@@H]2[C@H]2c3c(cc(C)c(OC)c3O)C[C@@H]([C@@H]1O)N2C)OCO4` [crystal Form A, lurbinectedin], the “stability of the crystal form” value in data set [2] (at room temperature, converts into other crystal forms readily) is given as “highly unstable”; in data set [2] (at −20° C.), “stable”.
`COc1ccc2[nH]c3c(c2c1)CCN[C@]31CS[C@@H]2c3c(OC(C)=O)c(C)c4c(c3[C@H](COC1=O)N1[C@@H]2[C@H]2c3c(cc(C)c(OC)c3O)C[C@@H]([C@@H]1O)N2C)OCO4` [crystal form B, lurbinectedin, reference compound]: the XRPD crystal form result in data set [3] (setting [6]) is “remained unchanged”; in data set [3] (10 days under long-term (25° C./60% RH) and accelerated (40° C./75% RH) conditions, listed as Crystal form B), “unchanged for 10”; in data set [3] (sealed, −20° C. for 120 days), “remained unchanged”; in data set [3] (sealed, −20° C. for 120 days, listed as Crystal form B), “unchanged”. Besides, the “chemical stability (assessment in words)” value in data set [3] is reported as “relatively poor”. Besides, in data set [3], the “physical stability (assessment in words)” value is on record as “excellent”. Also, the HPLC purity in data set [3] (Group 1, 0 day) is reported as 99.62%; in data set [3] (Group 2, 25° C./60% RH-5 days), 99.44%; in data set [3] (Group 3, 25° C./60% RH-10 days) it was 99.05%; in data set [3] (Group 4, 40° C./75% RH-5 days), 99.13%; in data set [3] (Group 5, 40° C./75% RH-10 days), 99.24%; in data set [3] (setting [7]) it was 99.60%. The “product purity” value in data set [3] is on record as “decreased”. In addition, the “purity” value in data set [3] is recorded as “above 99%”. Also, the “electrostatic effect (sticking to scoop and weighing paper)” value (shortened to “electrostatic effect”) in data set [4] is “obvious electrostatic effect”. For the same compound, in data set [4], the wall-hanging phenomenon result was “exhibits wall-hanging phenomenon”.
With `COc1ccc2[nH]c3c(c2c1)CCN[C@]31CS[C@@H]2c3c(OC(C)=O)c(C)c4c(c3[C@H](COC1=O)N1[C@@H]2[C@H]2c3c(cc(C)c(OC)c3O)C[C@@H]([C@@H]1O)N2C)OCO4` [crystal form I, lurbinectedin], in data set [5] (Group 1, initial moment), the “Crystal form of lurbinectedin (XRPD)” value is given as “crystal form I” and the HPLC purity turned out to be 99.91%. For the same compound, in data set [5] (setting [8]), the “Crystal form of lurbinectedin (XRPD)” value is recorded as “crystal form I” and the HPLC purity amounted to 99.68%. Besides, in data set [5] (setting [9]), the “Crystal form of lurbinectedin (XRPD)” value is given as “crystal form I” and the HPLC purity was found to be 99.65%. Moreover, the “time the crystal form remains stable” value in data set [5] (stored at 2-8° C. or −20° C.) is listed as “at least 12 months”. In addition, in data set [5] (setting [10]), the “crystal form” value is “remained unchanged” and the “product purity” value is given as “above 99%”. Besides, in data set [4], the “electrostatic effect” value is listed as “do not show electrostatic effect or the effect is not obvious”; the wall-hanging phenomenon result was “no wall-hanging phenomenon or the phenomenon is not obvious”.
With `COc1ccc2[nH]c3c(c2c1)CCN[C@]31CS[C@@H]2c3c(OC(C)=O)c(C)c4c(c3[C@H](COC1=O)N1[C@@H]2[C@H]2c3c(cc(C)c(OC)c3O)C[C@@H]([C@@H]1O)N2C)OCO4` [crystal form II, lurbinectedin], the XRPD crystal form entry in data set [3] (setting [6]) is given as “remained unchanged”; in data set [3] (sealed, −20° C. for 120 days), “remained unchanged”; in data set [3] (sealed, −20° C. for 120 days, listed as Crystal form II), “unchanged”. For the same compound, the “chemical stability (assessment in words)” value in data set [3] was “excellent”. Besides, the “physical stability (assessment in words)” value in data set [3] was “excellent”. The HPLC purity worked out at 99.59% in data set [3] (Group 1, 0 day); 99.40% in data set [3] (Group 2, 25° C./60% RH-5 days); 99.41% in data set [3] (Group 3, 25° C./60% RH-10 days); 99.41% in data set [3] (Group 4, 40° C./75% RH-5 days); 99.41% in data set [3] (Group 5, 40° C./75% RH-10 days); 99.58% in data set [3] (setting [7]). In data set [3], the “product purity” value is given as “above 99%”. For the same compound, in data set [3], the “purity” value is listed as “above 99%”. Besides, the “electrostatic effect” value in data set [4] is “do not show electrostatic effect or the effect is not obvious”. In addition, the wall-hanging phenomenon entry in data set [4] is on record as “no wall-hanging phenomenon or the phenomenon is not obvious”.
For the compound `COc1ccc2[nH]c3c(c2c1)CCN[C@]31CS[C@@H]2c3c(OC(C)=O)c(C)c4c(c3[C@H](COC1=O)N1[C@@H]2[C@H]2c3c(cc(C)c(OC)c3O)C[C@@H]([C@@H]1O)N2C)OCO4` [crystal form III, lurbinectedin], the XRPD crystal form result in data set [3] (setting [6]) is on record as “remained unchanged”; in data set [3] (sealed, −20° C. for 120 days), “remained unchanged”; in data set [3] (sealed, −20° C. for 120 days, listed as Crystal form III), “unchanged”. Also, in data set [3], the “chemical stability (assessment in words)” value is “excellent”. In data set [3], the “physical stability (assessment in words)” value is given as “excellent”. Besides, the HPLC purity in data set [3] (Group 1, 0 day) stood at 99.61%; in data set [3] (Group 2, 25° C./60% RH-5 days) it was 99.48%; in data set [3] (Group 3, 25° C./60% RH-10 days) it was 99.42%; in data set [3] (Group 4, 40° C./75% RH-5 days), 99.48%; in data set [3] (Group 5, 40° C./75% RH-10 days) it was 99.37%; in data set [3] (setting [7]), 99.60%. The “product purity” value in data set [3] is given as “above 99%”. Also, the “purity” value in data set [3] was “above 99%”. Moreover, the “electrostatic effect” value in data set [4] is recorded as “do not show electrostatic effect or the effect is not obvious”. Further, in data set [4], the wall-hanging phenomenon result was “no wall-hanging phenomenon or the phenomenon is not obvious”.
As for `COc1ccc2[nH]c3c(c2c1)CCN[C@]31CS[C@@H]2c3c(OC(C)=O)c(C)c4c(c3[C@H](COC1=O)N1[C@@H]2[C@H]2c3c(cc(C)c(OC)c3O)C[C@@H]([C@@H]1O)N2C)OCO4` [crystal form IV, lurbinectedin], the XRPD crystal form result in data set [3] (setting [6]) is given as “remained unchanged”; in data set [3] (sealed, −20° C. for 120 days) it was “remained unchanged”; in data set [3] (sealed, −20° C. for 120 days, listed as Crystal form IV), “unchanged”. Moreover, the “chemical stability (assessment in words)” value in data set [3] was “excellent”. Further, the “physical stability (assessment in words)” value in data set [3] is reported as “excellent”. Besides, the HPLC purity in data set [3] (Group 1, 0 day) was determined as 99.90%; in data set [3] (Group 2, 25° C./60% RH-5 days), 99.86%; in data set [3] (Group 3, 25° C./60% RH-10 days) it was 99.74%; in data set [3] (Group 4, 40° C./75% RH-5 days), 99.79%; in data set [3] (Group 5, 40° C./75% RH-10 days) it was 99.78%; in data set [3] (setting [7]), 99.91%. Also, in data set [3], the “product purity” value is given as “above 99%”. In data set [3], the “purity” value was “above 99%”. Moreover, in data set [4], the “electrostatic effect” value is recorded as “do not show electrostatic effect or the effect is not obvious”. Further, the wall-hanging phenomenon result in data set [4] is recorded as “no wall-hanging phenomenon or the phenomenon is not obvious”.
Take `COc1ccc2[nH]c3c(c2c1)CCN[C@]31CS[C@@H]2c3c(OC(C)=O)c(C)c4c(c3[C@H](COC1=O)N1[C@@H]2[C@H]2c3c(cc(C)c(OC)c3O)C[C@@H]([C@@H]1O)N2C)OCO4` [crystal form V, lurbinectedin]: in data set [4], the “electrostatic effect” value was “do not show electrostatic effect or the effect is not obvious”; the wall-hanging phenomenon entry was “no wall-hanging phenomenon or the phenomenon is not obvious”.
